Reference: patent publication EP2441755A1 (Almirall, S.A., priority 2010, dated 2012)
pIC50: −log10 of the molar value. Like-named read-outs stand apart in the source and are kept apart here.

What was measured:
[1] = target: T1, Recombinant human full-length Syk (Homo sapiens, UniProt P43405); experiment: Syk enzyme assay - radioactive filtration kinase assay; assay type: biochemical
T1 construct: Recombinant human full-length Syk was supplied by Millipore; purchased Millipore
Experimental: Syk Enzyme assay- Radioactive filtration kinase assay
Recombinant human full-length Syk was supplied by Millipore. The activity of Syk kinase was assessed using a radioactive filtration kinase assay. […] The reaction was initiated by the addition of 14.5 µl of 0.36 µCi [γ-^33P] ATP (10 mCi/ml, PerkinElmer). This was prepared in a half-area NBS plate (Corning) and allowed to stand at room temperature for 40 min. 15 µl of reaction mixture was transferred to a filter plate (Millipore) previously pre-wetted with a solution of 75 mM phosphoric acid. The reaction was terminated with the addition of 200 µl phosphoric acid. The filter plate was washed three times under vacuum on a vacuum manifold (Millipore cat# MSVMHTS00) at 8" Hg vacuum level with 200 µl phosphoric acid per wash. 30 µl Optiphase™ Supermix (PerkinElmer) was added to each test well and allowed to incubate for at least 1 h before counting. Radioactivity counting was performed in a Wallac MicroBeta®, and the tyrosine phosphorylation activity by Syk was calculated.

LAD2 cells = LAD2 cells assay (degranulation, β-hexosaminidase release); assay type: cell-based; conditions: Homo sapiens; for pIC50: 0.5 h, IgE-sensitized LAD2 cells, 30 min with compound, activated with 125 ng/ml streptavidin, released β-hexosaminidase, read-out: LAD2IC50
Description: LAD2 is a human mast cell line depending on stem cell factor for its survival, maturation and differentiation. This mast cell line was established by the NIH from bone marrow aspirates from a patient with mast cell sarcoma. LAD2 cells resemble CD34+ - derived human mast cells as they have granules containing tryptase, histamine and β-hexosaminidase. They also express c-kit and FcεRI (Kirshenbaum, et al., Leukemia Research 27: 677-682, 2003).
Sensitization of LAD2 cells
Cells were sensitized (0.2x10^6 cells/ml) in its normal growth factor (Complete StemPro-34 SFM, Gibco 10639-011 containing StemPro-34 nutrient supplement (1/40); glutamine (2 mM) and supplemented with 100 ng/ml SCF) by adding 100 ng/ml of biotin-labeled IgE (USBiological) overnight (16-18 h, 37º, 5% CO2) in a humidified atmosphere (90%).
Compounds were prepared from a 10^-2M stock in 100% DMSO to give seven successive 1/3 dilutions in DMSO. From each concentration, 2 further 1/10 dilutions were prepared in release buffer (137 mM NaCl, 2.70 mM KCI, 0.4 mM NaH2PO4, 5.6 mM (D)-glucose, 1.8 mM CaCl2, 1.3 mM MgSO4, 0.025% BSA). Finally, 5 µl from each diluted concentration were transferred into the assay plate (flat 96-well Nunc). The final compound concentrations tested ranged from 1x10^-5M to […] with a final proportion of DMSO in the assay of 0.1 %. Control wells were treated with 0.1 % DMSO.
Sensitized LAD2 cells were centrifuged (300 g, 3 min, R.T.) and washed 2 times with release buffer. Cells were resuspended in release buffer and adjusted to a density of 0.2x10^6/ml. 45 µl of the adjusted cells were transfered to the assay plate (∼10,000cells/well) containg 5 µl of the final compound concentrations. LAD2 cells were incubated with the compound for 30 min (37 °C, 5% CO2 90% of humidity) and then activated with 125 ng/ml of streptavidin (Pierce 21125) for 30 min (37 °C, 5% CO2, 90% of humidity). After the activation, cells were centrifuged at 1200 g, 10 min, 12 °C and supernatats were removed and transfered to another well for determination of released β-hexosaminidase. Empty wells were filled with 50 µl of release buffer for determination of intracellular β-hexosaminidase. Cells were lysed with 2 cycles of freeze-thaw.
Cells were incubated for 90 minutes, 37 °C with 1 mM β-hexosaminidase substrate (p-nitrophenyl N-acetyl-D-glucosamide, in citric buffer, pH 4.5). Reaction was stopped with 0.4 M glycine solution (pH 10.0) and the plate is read immediately at 405 nm.

[2] = Syk 1nM final, poly-GT 100 µg/ml, [γ-33P] ATP, 40 min at room temperature, read-out: Syk IC50

Row | pIC50 [1, 2] | Compound | pIC50 [1] | pIC50 (LAD2 cells) | pIC50 ([1]; read-out: Syk IC50, Syk 1nM final, poly-GT 100 µg/ml, [γ-33P] ATP, 40 min at room temperature) | IC50 (LAD2 cells; LAD2, 0.5 h, read-out: LAD2IC50(nM)) [nM]
1 | – | Cc1ccnc(Nc2cccc(-c3ccnc(N4CCNCC4)c3)n2)c1 [Example 14, N-(4-Methylpyridin-2-yl)-2'-piperazin-1-yl-2,4'-bipyridin-6-amine] | 7.85 | 7.15 | – | –
2 | 8.10 | NCCc1cccc(-c2cccc(Nc3cc(C(F)(F)F)ccn3)n2)c1 [Example 20, N-{6-[3-(2-Aminoethyl)phenyl]pyridin-2-yl}-4-(trifluoromethyl)pyridin-2-amine] | – | 6.73 | – | –
3 | 8.93 | FC(F)(F)c1ccnc(Nc2cccc(-c3cccc(C4CCNCC4)c3)n2)c1 [Example 22, N-[6-(3-Piperidin-4-ylphenyl)pyridin-2-yl]-4-(trifluoromethyl)pyridin-2-amine] | – | 6.43 | – | –
4 | – | FC(F)(F)c1ccnc(Nc2cccc(-c3cccc(N4CCNCC4)c3)n2)c1 [Example 23, N-[6-(3-Piperazin-1-ylphenyl)pyridin-2-yl]-4-(trifluoromethyl)pyridin-2-amine] | 9.25 | 6.48 | – | –
5 | – | FC(F)(F)c1ccnc(Nc2cccc(-c3ccnc(N4CCNCC4)c3)n2)c1 [Example 26, 2'-Piperazin-1-y)-N-[4-(trifluoromethy))pyridin-2-y)]-2,4'-bipyridin-6-amine] | 8.74 | 6.69 | – | –
6 | 7.74 | Cc1ccnc(Nc2cc3ccccc3c(-c3ccnc(N4CCNCC4)c3)n2)c1 [Example 52, N-(4-Methylpyridin-2-yl)-1-(2-piperazin-1-ylpyridin-4-yl)isoquinolin-3-amine] | – | 6.36 | – | –
7 | 8.15 | O=C(Nc1cc(Nc2cnccn2)nc(-c2ccnc(N3CCNCC3)c2)c1)c1cccc(C(F)(F)F)c1 [Example 76, N-[2'-Piperazin-1-yl-6-(pyrazin-2-ylamino)-2,4'-bipyridin-4-yl]-3-(trifluoromethyl) benzamide] | – | 6.51 | – | –
8 | 8.05 | O=C(Nc1cc(Nc2cnccn2)nc(-c2ccnc(N3CCNCC3)c2)c1)c1ccc2c(c1)OCO2 [Example 77, N-[2'-Piperazin-1-yl-6-(pyrazin-2-ylamino)-2,4' -bipyridin-4-yl]-1,3-benzodioxole-5-Carboxamide] | – | 6.64 | – | –
9 | 7.92 | COc1ccc(C(=O)Nc2cc(Nc3cnccn3)nc(-c3ccnc(N4CCNCC4)c3)c2)cc1 [Example 81, 4-Methoxy-N-[2'-piperazin-1-yl-6-(pyrazin-2-ylamino)-2,4'-bipyridin-4-yl]benzamide] | – | 6.37 | – | –
10 | 8.10 | O=C(CCc1ccccc1)Nc1cc(Nc2cnccn2)nc(-c2ccnc(N3CCNCC3)c2)c1 [Example 82, 3-Phenyl-N-[2'-piperazin-1-yl-6-(pyrazin-2-ylamino)-2,4'-bipyridin-4-yl]propanamide] | – | 6.55 | – | –
11 | – | Cc1cc(C(=O)Nc2cc(Nc3cnccn3)nc(-c3ccnc(N4CCNCC4)c3)c2)n(C)n1 [Example 83, 1,3-Dimethyl-N-[2'-piperazin-1-yl-6-(pyrazin-2-ylamino)-2,4'-bipyridin-4-yl]-1H-pyrazole-5-Carboxamide] | 8.15 | 6.77 | – | –
12 | 8.22 | COC(=O)c1cccc(C(=O)Nc2cc(Nc3cnccn3)nc(-c3ccnc(N4CCNCC4)c3)c2)c1 [Example 87, Methyl 3-({[2'-piperazin-1-yl-6-(pyrazin-2-ylamino)-2,4'-bipyridin-4-yl]amino}carbonyl)benzoate] | – | 6.48 | – | –
13 | – | O=C(Cc1cccnc1)Nc1cc(Nc2cnccn2)nc(-c2ccnc(N3CCNCC3)c2)c1 [Example 89, N-[2'-Piperazin-1-yl-6-(pyrazin-2-ylamino)-2,4'-bipyridin-4-yl]-2-pyridin-3-ylacetamide] | 8.40 | 6.46 | – | –
14 | – | O=C(Nc1cc(Nc2cnccn2)nc(-c2ccnc(N3CCNCC3)c2)c1)c1cncnc1 [Example 95, N-[2'-Piperazin-1-yl-6-(pyrazin-2-ylamino)-2,4'-bipyridin-4-yl]pyrimidine-5-Carboxamide] | 8.05 | 6.49 | – | –
15 | – | O=C(Nc1cc(Nc2cnccn2)nc(-c2ccnc(N3CCNCC3)c2)c1)c1ccc(C(=O)O)nc1 [Example 96, 5-({[2'-Piperazin-1-yl-6-(pyrazin-2-ylamino)-2,4'-bipyridin-4-yl]amino}carbonyl) pyridine-2-Carboxylic acid] | 8.00 | 6.70 | – | –
16 | 7.80 | O=C(C[C@H](Cc1ccccc1)C(=O)O)Nc1cc(Nc2cnccn2)nc(-c2ccnc(N3CCNCC3)c2)c1 [Example 98, (2S)-2-Benzyl-4-oxo-4-{[2'-piperazin-1-yl-6-(pyrazin-2-ylamino)-2,4'-bipyridin-4-yl]amino}butanoic acid] | – | 7.09 | – | –
17 | 8.10 | CC(=O)Nc1cc(Nc2cnccn2)nc(-c2ccnc(N3CCNCC3)c2)c1 [Example 101, N-[2'-Piperazin-1-yl-6-(pyrazin-2-ylamino)-2,4'-bipyridin-4-yl]acetamide] | – | 6.93 | – | –
18 | 7.89 | O=C(O)C[C@H](Cc1ccccc1)NC(=O)c1cccc(C(=O)Nc2cc(Nc3cnccn3)nc(-c3ccnc(N4CCNCC4)c3)c2)c1 [Example 109, (3S)-4-Phenyl-3-{[3-({[2'-piperazin-1-yl-6-(pyrazin-2-ylamino)-2,4'-bipyridin-4-yl]amino}carbonyl)benzoyl]amino}butanoic acid] | – | 7.00 | – | –
19 | – | Nc1cc(Nc2cnccn2)nc(-c2ccnc(N3CCNCC3)c2)c1 [Example 127, 2'-Piperazin-1-yl-N^6-pyrazin-2-yl-2,4'-bipyridine-4,6-diamine] | 8.40 | 6.93 | – | –
20 | – | CNc1cc(Nc2cnccn2)nc(-c2ccnc(N3CCNCC3)c2)c1 [Example 128, N^4-Methyl-2'-(piperazin-1-yl)-N^6-(pyrazin-2-yl)-2,4'-bipyridine-4,6-diamine] | 8.39 | 6.72 | – | –
21 | 8.09 | OC1CCN(c2cc(Nc3cnccn3)nc(-c3ccnc(N4CCNCC4)c3)c2)CC1 [Example 130, 1-(2'-(Piperazin-1-yl)-6-(pyrazin-2-ylamino)-2,4'-bipyridin-4-yl)piperidin-4-ol] | – | 6.40 | – | –
22 | – | Nc1cc(Nc2cnccn2)nc(-c2cncc(N3CCNCC3)c2)c1 [Example 138] | – | – | 8.60 | 150

Row | Compound | pIC50 [1, 2] | pIC50 [1] | pIC50 (LAD2 cells) | pIC50 ([1]; read-out: Syk IC50, Syk 1nM final, poly-GT 100 µg/ml, [γ-33P] ATP, 40 min at room temperature) | IC50 (LAD2 cells; LAD2, 0.5 h, read-out: LAD2IC50(nM)) [nM]
23 | C1=C(c2cccc(-c3cccc(Nc4cnccn4)n3)c2)CCNC1 [Example 29, N-{6-[3-(1,2,3,6-Tetrahydropyridin-4-y))pheny)]pyridin-2-y)}pyrazin-2-amine] | 7.70 | – | 6.74 | – | –
